pIC50: −log10 of the molar value. Like-named read-outs stand apart in the source and are kept apart here.
Legend:
[1] = test system: Pseudomonas aeruginosa efflux− (MB9799), IMP-1; assay type: cell-based; conditions: concentration restoring susceptibility to imipenem at 2 μg/mL in the presence of a class A, C, D serine β-lactamase inhibitor closely related to relebactam
In short: (§1)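 Microbroth MIC tests in PAO1-background strains with fixed imipenem and/or ceftazidime, usually at the CLSI breakpoint, plus fixed class A/C β-lactamase inhibitor against AmpC. MBL inhibitor titrated; concentration restoring susceptibility recorded and compared as fold difference between efflux+ MB9798 and efflux− MB9799.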

[2] = target: VIM-1 (Pseudomonas aeruginosa (strain ATCC 15692 / DSM 22644 / CIP 104116 / JCM 14847 / LMG 12228 / 1C / PRS 101 / PAO1), UniProt A0A0F7KYQ8); assay: biochemical; conditions: CCF2-FA substrate, 30 pM enzyme, 2 hours at 25° C.
In short: (§2)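 Two-hour, 25° C incubation of enzyme with inhibitor and CCF2-FA (7-hydroxycoumarin–cephalosporin–fluorescein). Fluorescence read-out; IC50 via 4-parameter fit.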

[3] = test system: Pseudomonas aeruginosa efflux+ (MB9798), IMP-1; assay type: cell-based; conditions: concentration restoring susceptibility to imipenem at 2 μg/mL in the presence of a class A, C, D serine β-lactamase inhibitor closely related to relebactam
In short: as §1

[4] = target: NDM-1 (Klebsiella pneumoniae, UniProt C7C422); assay: biochemical; assay type: biochemical; conditions: fluorescence assay, CCF2-FA substrate, 1 pM enzyme, 2 hours at 25° C.; read-out: NDM-1 IC50
In short: as §2

[5] = target: IMP-1 (Serratia marcescens, UniProt P52699); assay: biochemical; assay type: biochemical; conditions: fluorescence assay, CCF2-FA substrate, 2 pM enzyme, 2 hours at 25° C.; read-out: IMP-1 IC50
In short: as §2

[6] = test system: Klebsiella pneumoniae expressing VIM-1 (IHMA599644); assay type: cell-based; conditions: with imipenem 1 μg/ml; 95% inhibition of bacterial growth
In short: (§3)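 Growth by absorbance after 22–24 h at 35°C defined the read-out, with imipenem fixed at 1 μg/ml alongside compound. Inocula came from overnight blood-agar colonies at 35°C, resuspended in saline and diluted 1:100 in 1.1×CAMHB.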

[7] = test system: Serratia marcescens expressing IMP-1 (CL5741); assay type: cell-based; conditions: with imipenem 1 μg/ml; 95% inhibition of bacterial growth
In short: as §3

[8] = test system: Escherichia coli expressing NDM-1 (CLB30005, CLB30016); assay type: cell-based; conditions: with imipenem 1 μg/ml; 95% inhibition of bacterial growth
In short: as §3

[9] = test system: Pseudomonas aeruginosa MB9798 vs MB9799; conditions: ratio MITC95 PA_9798/MITC95 PA_9799
In short: as §1

IMP-1, sequence (P52699 whole entry, looked up, species assumed): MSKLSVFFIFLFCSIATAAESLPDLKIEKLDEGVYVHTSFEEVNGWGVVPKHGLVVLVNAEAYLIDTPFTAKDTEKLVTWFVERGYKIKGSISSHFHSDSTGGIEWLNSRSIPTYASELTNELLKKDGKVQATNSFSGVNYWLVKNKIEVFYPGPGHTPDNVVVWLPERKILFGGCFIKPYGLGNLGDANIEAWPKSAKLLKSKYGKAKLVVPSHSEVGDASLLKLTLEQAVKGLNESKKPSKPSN
NDM-1, sequence (C7C422 whole entry, looked up, species assumed): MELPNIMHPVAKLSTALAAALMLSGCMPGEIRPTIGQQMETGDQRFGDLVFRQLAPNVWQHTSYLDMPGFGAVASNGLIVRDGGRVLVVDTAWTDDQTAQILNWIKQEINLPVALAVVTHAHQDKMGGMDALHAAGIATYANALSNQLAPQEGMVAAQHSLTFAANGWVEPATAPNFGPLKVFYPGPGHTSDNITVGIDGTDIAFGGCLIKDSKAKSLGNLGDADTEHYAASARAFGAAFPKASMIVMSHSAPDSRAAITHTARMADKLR

Row | Structure (SMILES) | P. aeruginosa expressing IMP-1, efflux − (MB9799) MITC95 [1] [µM] | pIC50 ([2]; VIM-1 IC50, fluorescence assay) | P. aeruginosa expressing IMP-1, efflux + (MB9798) MITC95 [3] [µM] | pIC50 [4] | pIC50 [5] | Klebsiella pneumoniae expressing VIM-1 (IHMA599644) MITC95 [6] [µM] | Serratia marcescens expressing IMP-1 (CL5741) MITC95 [7] [µM] | Escherichia coli expressing NDM-1 (CLB30016) MITC95 [8] [µM] | Efflux ratio [9] | pIC50 ([2]; fluorescence assay, read-out: VIM-1 IC50)
1 | Cn1c(N)nc2c(-c3ccc(S(=O)(=O)N[C@H]4CC[N+](C)(C)C4)c(S(N)(=O)=O)c3-c3nn[n-]n3)cccc21 [Example 167, (S)-5-(6-(2-amino-1-methyl-1H-benzo[d]imidazol-4-yl)-3-(N-(1,1-dimethylpyrrolidin-1-ium-3-yl)sulfamoyl)-2-sulfamoylphenyl)tetrazol-2-ide] | 1.563 | 9.77 | 3.125 | 10.23 | 9.46 | 3.125 | 1.563 | 1.563 | 2.00 | 
2 | Nc1nc2c(-c3ccc(S(=O)(=O)N[C@H]4CNC[C@H]4O)c(S(N)(=O)=O)c3-c3nnn[nH]3)cccc2[nH]1 [Example 168, 4-(2-amino-1H-benzo[d]imidazol-4-yl)-N^1-((3S,4R)-4-hydroxypyrrolidin-3-yl)-3-(1H-tetrazol-5-yl)benzene-1,2-disulfonamide] | 0.543 | 9.79 | 0.3828 | 10.29 | 9.26 | 0.8906 | 0.668 | 0.375 | 0.70 | 
3 | Nc1nc2c(-c3ccc(S(=O)(=O)N[C@H]4CNC[C@@H]4O)c(S(N)(=O)=O)c3-c3nnn[nH]3)cccc2[nH]1 [Example 169, 4-(2-amino-1H-benzo[d]imidazol-4-yl)-N^1-((3S,4S)-4-hydroxypyrrolidin-3-yl)-3-(1H-tetrazol-5-yl)benzene-1,2-disulfonamide] | 1.563 | 9.24 | 1.563 | 9.86 | 8.68 | 3.125 | 1.563 | 0.7813 | 1.00 | 
4 | Nc1nc2c(-c3ccc(S(=O)(=O)N[C@@H]4CNC[C@@H]4O)c(S(N)(=O)=O)c3-c3nnn[nH]3)cccc2[nH]1 [Example 170, 4-(2-amino-1H-benzo[d]imidazol-4-yl)-N^1-((3R,4S)-4-hydroxypyrrolidin-3-yl)-3-(1H-tetrazol-5-yl)benzene-1,2-disulfonamide] | 0.7813 | 9.59 | 0.7813 | 10.10 | 8.95 | 1.563 | 0.7813 | 0.7813 | 1.00 | 
5 | Nc1nc2c(-c3ccc(S(=O)(=O)N[C@@H]4CNC[C@H]4O)c(S(N)(=O)=O)c3-c3nnn[nH]3)cccc2[nH]1 [Example 171, 4-(2-amino-1H-benzo[d]imidazol-4-yl)-N^1-((3R,4R)-4-hydroxypyrrolidin-3-yl)-3-(1H-tetrazol-5-yl)benzene-1,2-disulfonamide] | 1.563 | 9.30 | 0.7813 | 9.90 | 8.86 | 3.125 | 1.563 | 0.7813 | 0.50 | 
6 | Nc1nc2c(-c3ccc(S(=O)(=O)N[C@H]4CN[C@H](CO)C4)c(S(N)(=O)=O)c3-c3nnn[nH]3)cccc2[nH]1 [Example 172, 4-(2-amino-1H-benzo[d]imidazol-4-yl)-N^1-((3R,5S)-5-(hydroxymethyl)pyrrolidin-3-yl)-3-(1H-tetrazol-5-yl)benzene-1,2-disulfonamide] | 0.7813 | 9.80 | 0.3906 | 10.30 | 9.29 | 1.563 | 0.7813 | 0.5859 | 0.50 | 
7 | Nc1nc2c(-c3ccc(S(=O)(=O)N[C@H]4CN[C@@H](CO)C4)c(S(N)(=O)=O)c3-c3nnn[nH]3)cccc2[nH]1 [Example 173, 4-(2-amino-1H-benzo[d]imidazol-4-yl)-N^1-((3R,5R)-5-(hydroxymethyl)pyrrolidin-3-yl)-3-(1H-tetrazol-5-yl)benzene-1,2-disulfonamide] | 1.563 | 9.55 | 1.563 | 10.02 | 9.03 | 3.125 | 0.7813 | 0.7813 | 1.00 | 
8 | Nc1nc2c(-c3ccc(S(=O)(=O)N[C@@H]4CN[C@@H](CO)C4)c(S(N)(=O)=O)c3-c3nnn[nH]3)cccc2[nH]1 [Example 174, 4-(2-amino-1H-benzo[d]imidazol-4-yl)-N^1-((3S,5R)-5-(hydroxymethyl)pyrrolidin-3-yl)-3-(1H-tetrazol-5-yl)benzene-1,2-disulfonamide] | 1.563 | 9.41 | 1.563 | 9.93 | 8.78 | 3.125 | 1.563 | 3.125 | 1.00 | 
9 | Nc1nc2c(-c3ccc(S(=O)(=O)N[C@@H]4CN[C@H](CO)C4)c(S(N)(=O)=O)c3-c3nnn[nH]3)cccc2[nH]1 [Example 175, 4-(2-amino-1H-benzo[d]imidazol-4-yl)-N^1-((3S,5S)-5-(hydroxymethyl)pyrrolidin-3-yl)-3-(1H-tetrazol-5-yl)benzene-1,2-disulfonamide] | 1.563 | 9.48 | 0.7813 | 9.90 | 9.00 | 3.125 | 1.563 | 0.7813 | 0.50 | 
10 | Nc1nc2c(-c3ccc(S(=O)(=O)N[C@@]4(CO)CCNC4)c(S(N)(=O)=O)c3-c3nnn[nH]3)cccc2[nH]1 [Example 176, (S)-4-(2-amino-1H-benzo[d]imidazol-4-yl)-N1-(3-(hydroxymethyl)pyrrolidin-3-yl)-3-(1H-tetrazol-5-yl)benzene-1,2-disulfonamide] | 0.7813 |  | 0.7813 | 10.28 | 9.14 | 1.563 | 0.7813 | 0.3906 | 1.00 | 9.72
